Laboratory results from patent US20030083271A1, “Topoisomerase I selective cytotoxic sugar derivatives of indolopyrrolocarbazoles” (priority 2001, published 2003).
Marks after values point to notes of the source that are not given here.

Tests used:
[1] = system: P388/CPT45 cells; assay: Cytotoxicity in camptothecin-resistant P388/CPT45 cells relative to parental P388 (selectivity index R/S); type: cell-based, murine; conditions: IC50 P388/CPT45 cells divided by IC50 parental P388 cells
How it was run: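 Murine P388 leukemia cells and their camptothecin-resistant P388/CPT45 subline were plated at 8,000 cells/well and exposed to serial compound dilutions for 72 h at 37 °C. Viability was read by MTS/PMS reduction at 492 nm, with IC50 taken against untreated cells. R/S is the P388/CPT45 IC50 divided by the parental P388 IC50.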

[2] = system: HT-29 colon carcinoma; assay: In vivo antitumor activity, HT-29 xenograft; set-up: species or system Balb/c athymic (nude) female mice; conditions: for LCK (gross log cell kill): HT29 sc xenograft in nude mice, at optimal or maximum tolerated dose, CPT-11 run as comparator in same experiment; for MTD (optimal or maximum tolerated dose level tested): HT29 xenograft experiment, nude mice
Description: (§1) Compounds: Examples of this invention were administered in an appropriate vehicle such as cremophor/ethanol/water (10%/10%/80%), in normal saline, water/carboxymethylcellulose vehicle.
(§2) All compounds were tested at several dose levels, with attempts each time to achieve their maximum tolerated dose (MTD). […] The optimal dose (OD) was the dose producing the best therapeutic effect, and was usually, but not always, synonymous with the MTD.
(§3) Tumors: Human tumors (HCT-116 and HT-29 colon carcinomas) were grown as xenografts in Balb/c athymic (nude) female mice. Antitumor assays. All tumors were implanted subcutaneously (sc) as 3-4mm fragments using a 13 gauge trochar. There were generally eight mice per treatment and control group. When treatment was delayed until tumors had obtained a certain size (weight), referred to as a staged tumor experiment (expt.), tumor-bearing mice were selected so that their tumors fell within a limited range of sizes for the particular expt.
(§4) Tumors were measured by calipers, and tumor weight calculated by the formula length (mm) times (×) width (mm)^2/2=tumor weight (mg). The median time (in days) to reach a predetermined tumor target size (for example, 500 mg) for untreated, control (C) mice relative to the time to reach the same target size for treated (T) mice, was calculated as a T-C value. T-C values were divided by the tumor volume doubling time (TVDT), and multiplied by 3.32, to yield a gross log cell kill (LCK) value, [i.e., (T-C)/TVDT×3.32=LCK].
(§5) A mouse was considered cured if there was no palpable tumor after a period of time equal to 10×TVDT post-reatment (Rx).

[3] = system: HCT-116 colon carcinoma; assay: In vivo antitumor activity, HCT-116 xenograft; set-up: species or system Balb/c athymic (nude) female mice; conditions: for LCK (gross log cell kill): HT116 sc xenograft in nude mice, at optimal or maximum tolerated dose, CPT-11 run as comparator in same experiment; for MTD (optimal or maximum tolerated dose level tested): HT116 xenograft experiment, nude mice
Description: as §1, §2, §3, §4, §5

Row | SMILES | Selectivity Index R/S [1] | LCK (gross log cell kill) [2] | MTD (optimal or maximum tolerated dose level tested) [2] [mpkpi] | LCK (gross log cell kill) [3] | MTD (optimal or maximum tolerated dose level tested) [3] [mpkpi]
1 | O=C1NC(=O)c2c1c1c3cc(F)ccc3[nH]c1c1c2c2cc(F)ccc2n1[C@@H]1O[C@H](CF)[C@@H](F)[C@H](O)[C@H]1O [Example 27] | 448.4 | 1.9^a | 11 | >1.4^c | 8
2 | O=C1NC(=O)c2c1c1c3cc(F)c(F)cc3sc1c1c2c2cc(F)c(F)cc2n1[C@@H]1O[C@H](CF)C[C@H](O)[C@H]1O [Example 9, 12-[4,6-Dideoxy-6-fluoro-β-D-glucopyranosyl]-2,3,9,10-tetrafluoro-5H, 13H-benzo[b]thienyl[2,3-a]pyrrolo[3,4-c]carbazole-5,7(6H)-dione] | 120.2 | >1.4 | >22 | >3.4 | >22
3 | O=C1NC(=O)c2c1c1c3cc(F)ccc3[nH]c1c1c2c2cc(F)ccc2n1[C@@H]1O[C@H](CO)[C@@H](F)[C@H](O)[C@H]1O [Example 24, 12-[4-Deoxy-4-fluoro-β-D-glucopyranosyl]-3,9-difluoro-12,13-dihydro-5H-indolo[2,3-a]pyrrolo[3,4-c]carbazole-5,7(6H)-dione] | 379.0 | 2.1 | 15 | 1.3 | 10
4 | O=C1NC(=O)c2c1c1c3cc(F)c(F)cc3sc1c1c2c2cc(F)c(F)cc2n1[C@@H]1O[C@H](CF)[C@@H](F)[C@H](O)[C@H]1O [Example 26, 12-[4,6-Difluoro-4,6-dideoxy-β-D-glucopyranosyl]-2,3,9,10-tetrafluoro-5H, 13H-benzo[b]thienyl[2,3-a]pyrrolo[3,4-c]carbazole-5,7(6H)-dione] | 387.8 | 1.4 | >9 | >3.4 | >9
5 | O=C1NC(=O)c2c1c1c3cc(F)c(F)cc3sc1c1c2c2cc(F)c(F)cc2n1[C@@H]1O[C@H](CO)[C@@H](F)[C@H](O)[C@H]1O [Example 33, 12-[4-Deoxy-4-fluoro-β-D-glucopyranosyl]-2,3,9,10-tetrafluoro-5H,13H-benzo[b]thienyl[2,3-a]pyrrolo[3,4-c]carbazole-5,7(6H)-dione] | >1657.6 | >2.3^b | 11 | 2.3 | 10
